# Results published in patent publication US12351580B2, “NLRP3 modulators” (Innate Tumor Immunity, Inc., priority 2017, dated 2025).
# Molecular target: T1, hNLRP3 (Homo sapiens, UniProt Q96P20)
# T1 construct: THP-1 cells were purchased from the American Type Culture Collection; host or cells: THP-1 cells, PMA-differentiated
# Assay: Measurement of IL-1β production in PMA-differentiated THP-1 cells (hNLRP3 agonist; ELISA, alternative and hTRF procedures)
# Assay type: cell-based
# Procedure: Measurement of IL-1β production in PMA-differentiated THP-1 cells THP-1 cells were purchased from the American Type Culture Collection and sub-cultured according to instructions from the supplier. Prior to experiments, cells were cultured in RPMI 1640 containing 10% heat inactivated FBS, penicillin (100 units/ml) and streptomycin (100 μg/ml), and maintained in log phase prior to experimental setup. Prior to the experiment THP-1 were treated with PMA (Phorbol 12-myristate 13-acetate) ([…]) for 24 hours. The day of the experiment the media was removed and attaching cells were treated with trypsin for 2 minutes, cells were then collected, washed with PBS (phosphate buffer saline), spin down, resuspended in 2% heat inactivated FBS with RPMI at a concentration of 1×10^6 cells/ml, and 100 μl was plated in a 96 well plate. Compounds were dissolved in dimethyl sulfoxide (DMSO) and added to the culture medium to achieve desired concentration (e.g. 100, 30, 10, 3, 1, 0.3 or 0.1 μM). Cells were incubated with compounds for 4 hours. Cell free supernatant was collected and the production of […] was evaluated by ELISA. A vehicle only control was run concurrently with each experiment. Final DMSO concentration was 1%.
# Measurement of IL-1β Production in PMA-Differentiated THP-1 Cells (Alternative Procedure)
# THP-1 cells were purchased from the American Type Culture Collection and sub-cultured according to instructions from the supplier. Prior to experiments, cells were cultured in RPMI 1640 containing 10% heat inactivated FBS, penicillin (100 units/ml), streptomycin (100 μg/ml), HEPES (10 mM) and sodium pyruvate (1 mM) and maintained in log phase prior to experimental setup. Prior to the experiment, THP-1 cells were treated with PMA (Phorbol 12-myristate 13-acetate) (20 μg/ml) overnight. The day of the experiment, the media was removed and attached cells were treated with trypsin for 2 minutes, cells were then collected, washed with PBS (phosphate buffer saline), pelleted by centrifugation and resuspended in 2% heat inactivated FBS with RPMI at a concentration of 50,000 cells/well in a 384 well plate. Cell free supernatant was collected and the production of IL-1β was evaluated by ELISA. Compounds were dissolved in dimethyl sulfoxide (DMSO) and added to the culture medium to achieve desired concentration (e.g. 100, 30, 10, 3, 1, 0.3 or 0.1 μM). Cells were incubated with compounds for 2 hours. A vehicle only control was run concurrently with each experiment. Final DMSO concentration was 1%.
# Measurement of IL-1β Production—hTRF Protocol (Second Alternative Procedure)
# Serial dilutions of compounds in DMSO were added to low volume 384 well plates at 100 nl/well using an ECHO 550 acoustic dispenser (Labcyte) to achieve final starting concentration of 10 μM in assay.
# THP-1 cells in RPMI (Gibco, 11875) media with 10% FBS at a density of 1×10^6 cell/ml in a T175 flask were treated with a final concentration of phorbol 12-myristate 13-acetate (PMA) (Sigma, P1585) of 50 ng/ml overnight at 37° C. at 5% CO2 for differentiation. Cells were harvested the next day after rinsing well with dPBS using 0.5% trypsin. A cell solution was prepared of 1×10^6 cells/ml for 50,000 cells in 50 μl/well in RPMI media with 2% FBS. Cells were plated using a multichannel pipette onto the compound dilutions in Greiner, 384 well, black clear bottom tissue culture treated plates (781090). The plates were incubated in 37° C. incubator at 5% CO2 for 2 hours.
# After the 2 hour incubation, the cell plates were spun in the centrifuge for 5 minutes at 1200 rpm. Using the Felix (CyBio), 8 μl of the supernatant was transferred to 384 well, low volume, white proxy plates. (Perkin Elmer, 6008230). A human IL1beta hTRF kit was used to analyze the supernatant (CISBIO, 62HIL1BPEG). The kit instructions were followed for preparing the IL1Beta standard curve and then the antibodies from the kit were diluted 1:40 rather than 1:20 as kit instructed.
# T1 sequence (Q96P20 whole entry): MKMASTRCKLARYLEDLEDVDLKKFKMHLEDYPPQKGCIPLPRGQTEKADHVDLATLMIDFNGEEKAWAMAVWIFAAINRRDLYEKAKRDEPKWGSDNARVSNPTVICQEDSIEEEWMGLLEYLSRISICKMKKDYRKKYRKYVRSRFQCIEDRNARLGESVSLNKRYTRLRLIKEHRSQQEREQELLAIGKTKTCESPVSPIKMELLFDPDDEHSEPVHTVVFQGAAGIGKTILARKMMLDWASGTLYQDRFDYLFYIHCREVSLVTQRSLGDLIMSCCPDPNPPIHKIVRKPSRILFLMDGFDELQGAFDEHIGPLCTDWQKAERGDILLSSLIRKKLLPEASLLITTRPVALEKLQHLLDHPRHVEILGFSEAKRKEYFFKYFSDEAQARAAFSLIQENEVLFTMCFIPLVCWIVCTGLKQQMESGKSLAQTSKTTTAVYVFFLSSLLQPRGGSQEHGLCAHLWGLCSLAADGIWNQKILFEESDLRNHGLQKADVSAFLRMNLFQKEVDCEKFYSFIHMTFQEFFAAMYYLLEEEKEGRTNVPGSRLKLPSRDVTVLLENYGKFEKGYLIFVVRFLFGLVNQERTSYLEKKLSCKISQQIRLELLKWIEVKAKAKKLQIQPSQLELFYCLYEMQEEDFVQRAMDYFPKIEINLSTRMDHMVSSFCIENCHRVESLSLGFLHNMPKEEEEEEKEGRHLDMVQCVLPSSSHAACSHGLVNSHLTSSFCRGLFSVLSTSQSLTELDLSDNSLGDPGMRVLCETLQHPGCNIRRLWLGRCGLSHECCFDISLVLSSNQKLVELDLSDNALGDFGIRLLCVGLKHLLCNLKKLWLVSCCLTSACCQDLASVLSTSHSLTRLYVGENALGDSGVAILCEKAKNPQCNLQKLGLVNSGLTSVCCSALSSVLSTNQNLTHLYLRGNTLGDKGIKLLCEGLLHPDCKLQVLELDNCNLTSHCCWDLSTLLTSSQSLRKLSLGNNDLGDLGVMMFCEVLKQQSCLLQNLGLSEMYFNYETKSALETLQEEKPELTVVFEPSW
row,EC50,SMILES
1,6.6 µM,COC(=O)CCCn1c(CN2CCCC2=O)nc2c(N)nc3cc(Cl)ccc3c21 [Compound 216]
2,96 µM,CCN(Cc1nc2c(N)nc3cc(Cl)ccc3c2n1CCCC(=O)NC)C(C)=O [Compound 217]
3,1.2 µM,CCN(Cc1nc2c(N)nc3cc(Br)ccc3c2n1CCCC(=O)OC)C(C)=O [Compound 218]
4,2 µM,CCN(Cc1nc2c(N)nc3cc(Cl)ccc3c2n1CCCC(=O)OC)C(C)=O [Compound 219]
5,51 µM,CCN(Cc1nc2c(N)nc3cc(Cl)ccc3c2n1CCCC(=O)N1CCOCC1)C(C)=O [Compound 220]
6,85 µM,CCN(Cc1nc2c(N)nc3cc(Cl)ccc3c2n1CCCC(=O)N1CCN(C)CC1)C(C)=O [Compound 221]
7,42 µM,CCN(Cc1nc2c(N)nc3cc(Cl)ccc3c2n1CCCC(=O)N1CCCC1)C(C)=O [Compound 222]
8,77 µM,CCN(Cc1nc2c(N)nc3ccccc3c2n1CCC(=O)N1CCS(=O)(=O)CC1)C(=O)OC(C)(C)C [Compound 223]
9,10.9 µM,CCNCc1nc2c(N)nc3cc(Br)ccc3c2[nH]1 [Compound 225]
10,85 µM,CCN(Cc1nc2c(N)nc3cc(C(F)(F)F)ccc3c2n1CCCC(=O)NC)C(=O)OC(C)(C)C [Compound 226]
11,22.7 µM,CCNCc1nc2c(N)nc3cc(C(F)(F)F)ccc3c2n1CCCC(=O)OC [Compound 227]
12,93 µM,CCN(Cc1nc2c(N)nc3cc(C(F)(F)F)ccc3c2n1CCCC(=O)N1CCOCC1)C(=O)OC(C)(C)C [Compound 228]
13,12.3 µM,CCN(Cc1nc2c(N)nc3cc(C(F)(F)F)ccc3c2n1CCCC(=O)OC)C(C)=O [Compound 229]
14,4.5 µM,COc1ccc(-c2ccc3c(c2)nc(N)c2nc(CN4CCCC4=O)[nH]c23)cc1 [Compound 230]
15,120 µM,CC(=O)NCc1nc2c(N)nc3ccccc3c2[nH]1 [Compound 233]
16,10.8 µM,Nc1nc2ccccc2c2[nH]c(CN3CCCC3=O)nc12 [Compound 278]
17,7.5 µM,"Nc1nc2cc(-c3cccnc3)ccc2c2[nH]c(CN3CCCC3=O)nc12 [Compound 279, 1-[(4-amino-7-pyridin-3-yl-1H-imidazo[4,5-c]quinolin-2-yl)methyl]pyrrolidin-2-one]"
18,0.22 µM,"Nc1nc2cc(-c3ccccc3)ccc2c2[nH]c(CN3CCCC3=O)nc12 [Compound 280, 1-[(4-amino-7-phenyl-1H-imidazo[4,5-c]quinolin-2-yl)methyl]pyrrolidin-2-one]"

row,EC50,SMILES
1,1.4 µM,"Nc1nc2cc(-c3ccccc3Cl)ccc2c2[nH]c(CN3CCCC3=O)nc12 [Compound 281, 1-[[4-amino-7-(2-chlorophenyl)-1H-imidazo[4,5-c]quinolin-2-yl]methyl]pyrrolidin-2-one]"
2,4.8 µM,"Cc1ccccc1-c1ccc2c(c1)nc(N)c1nc(CN3CCCC3=O)[nH]c12 [Compound 282, 1-[[4-amino-7-(2-methylphenyl)-1H-imidazo[4,5-c]quinolin-2-yl]methyl]pyrrolidin-2-one]"
3,6.5 µM,"COc1ccccc1-c1ccc2c(c1)nc(N)c1nc(CN3CCCC3=O)[nH]c12 [Compound 283, 1-[[4-amino-7-(2-methoxyphenyl)-1H-imidazo[4,5-c]quinolin-2-yl]methyl]pyrrolidin-2-one]"
4,0.86 µM,"Nc1nc2cc(-c3ccccc3F)ccc2c2[nH]c(CN3CCCC3=O)nc12 [Compound 284, 1-[[4-amino-7-(2-fluorophenyl)-1H-imidazo[4,5-c]quinolin-2-yl]methyl]pyrrolidin-2-one]"
5,5.7 µM,"Nc1nc2cc(-c3cccc(Cl)c3)ccc2c2[nH]c(CN3CCCC3=O)nc12 [Compound 285, 1-[[4-amino-7-(3-chlorophenyl)-1H-imidazo[4,5-c]quinolin-2-yl]methyl]pyrrolidin-2-one]"
6,0.61 µM,"Cc1cccc(-c2ccc3c(c2)nc(N)c2nc(CN4CCCC4=O)[nH]c23)c1 [Compound 286, 1-[[4-amino-7-(3-methylphenyl)-1H-imidazo[4,5-c]quinolin-2-yl]methyl]pyrrolidin-2-one]"
7,1.08 µM,"COc1cccc(-c2ccc3c(c2)nc(N)c2nc(CN4CCCC4=O)[nH]c23)c1 [Compound 287, 1-[[4-amino-7-(3-methoxyphenyl)-1H-imidazo[4,5-c]quinolin-2-yl]methyl]pyrrolidin-2-one]"
8,10.1 µM,"N#Cc1cccc(-c2ccc3c(c2)nc(N)c2nc(CN4CCCC4=O)[nH]c23)c1 [Compound 288, 3-[4-amino-2-[(2-oxopyrrolidin-l-yl)methyl]-1H-imidazo[4,5-c]quinolin-7-yl]benzonitrile]"
9,1.58 µM,"Nc1nc2cc(-c3cccc(F)c3)ccc2c2[nH]c(CN3CCCC3=O)nc12 [Compound 289, 1-[[4-amino-7-(3-fluorophenyl)-1H-imidazo[4,5-c]quinolin-2-yl]methyl]pyrrolidin-2-one]"
10,0.11 µM,"Cc1ccc(-c2ccc3c(c2)nc(N)c2nc(CN4CCCC4=O)[nH]c23)cc1 [Compound 291, 1-[[4-amino-7-(4-methylphenyl)-1H-imidazo[4,5-c]quinolin-2-yl]methyl]pyrrolidin-2-one]"
11,4.6 µM,"Nc1nc2cc(Br)ccc2c2[nH]c(CN3CCCC3=O)nc12 [Compound 294, 1-[(4-amino-7-bromo-1H-imidazo[4,5-c]quinolin-2-yl)methyl]pyrrolidin-2-one]"
12,1.2 µM,"Nc1nc2cc(-n3cccn3)ccc2c2[nH]c(CN3CCCC3=O)nc12 [Compound 295, 1-[(4-amino-7-pyrazol-1-yl-1H-imidazo[4,5-c]quinolin-2-yl)methyl]pyrrolidin-2-one]"
13,5.1 µM,"Cc1cnn(-c2ccc3c(c2)nc(N)c2nc(CN4CCCC4=O)[nH]c23)c1 [Compound 296, 1-[[4-amino-7-(4-methylpyrazol-1-yl)-1H-imidazo[4,5-c]quinolin-2-yl]methyl]pyrrolidin-2-one]"
14,21 µM,"Nc1nc2cc(C3CCOCC3)ccc2c2[nH]c(CN3CCCC3=O)nc12 [Compound 298, 1-[[4-amino-7-(oxan-4-yl)-1H-imidazo[4,5-c]quinolin-2-yl]methyl]pyrrolidin-2-one]"
15,2.93 µM,"Cc1ccn(-c2ccc3c(c2)nc(N)c2nc(CN4CCCC4=O)[nH]c23)n1 [Compound 301, 1-[[4-amino-7-(3-methylpyrazol-1-yl)-1H-imidazo[4,5-c]quinolin-2-yl]methyl]pyrrolidin-2-one]"
16,0.93 µM,"Nc1nc2cc(C3CCCCC3)ccc2c2[nH]c(CN3CCCC3=O)nc12 [Compound 302, 1-[(4-amino-7-cyclohexyl-1H-imidazo[4,5-c]quinolin-2-yl)methyl]pyrrolidin-2-one]"
17,11.1 µM,"CC(c1nc2c(N)nc3cc(Br)ccc3c2[nH]1)N1CCCC1=O (centres unmarked) [Compound 303, 1-[1-(4-amino-7-bromo-1H-imidazo[4,5-c]quinolin-2-yl)ethyl]pyrrolidin-2-one]"
